Laboratory results: patent US4264497A, “1,5-Benzothiazepine compounds” (Maruko Seiyaku Co., Ltd., priority 1978, dated 1981)
Where a name gives a salt, the structure may show the parent alone.

Experiments:
[1] = tested on: Pylorus Ligature induced ulcer; experiment: Anti-ulcer activity, pylorus ligature ulcer, rats; format: in vivo; details: s.c., 20 mg/kg
[2] = tested on: Indomethacin induced ulcer; experiment: Anti-ulcer activity, indomethacin induced ulcer, rats; format: in vivo; details: p.o.
[3] = tested on: Corediastasis; experiment: Corediastasis (side effect), intraperitoneal; format: in vivo
[4] = tested on: Aspirin-Stress induced ulcer; experiment: Anti-ulcer activity, aspirin-stress induced ulcer, mice; format: in vivo; details: s.c., 5 mg/kg
[5] = tested on: Aspirin induced ulcer; experiment: Anti-ulcer activity, aspirin induced ulcer, rats; format: in vivo; details: s.c., 5 mg/kg
[6] = tested on: mice; experiment: Acute toxicity LD50, oral, in mice; details: oral
[7] = tested on: mice; experiment: Acute toxicity LD50, intravenous, in mice; details: intravenous
[8] = tested on: mice; experiment: Acute toxicity, overall comparison; format: in vivo; details: in words, vs Glycopyrrolate
[9] = tested on: ulcer; experiment: Anti-ulcer activity, overall statement; format: in vivo; details: in words, vs Glycopyrrolate
[10] = tested on: Gastric secretion; experiment: Gastric secretion inhibitory activity, observed in the anti-ulcer test using aspirin; format: in vivo; details: observed simultaneously in anti-ulcer test using aspirin (rats, s.c., 5 mg/kg)
[11] = tested on: Stress induced ulcer; experiment: Anti-ulcer activity, stress induced ulcer, mice; format: in vivo; details: p.o., 5 mg/kg
[12] = tested on: Stress ulcer; experiment: Anti-ulcer activity (Stress), relative to racemate; format: in vivo; details: for Anti-ulcer Activity (Stress): relative, racemic mixture = 1
[13] = tested on: Desalivation; experiment: Desalivation activity (side effect), relative to racemate; format: in vivo; details: for Desalivation Activity: relative, racemic mixture = 1, side effect
[14] = Acute toxicity LD50, oral, in mice; details: mouse, in vivo, po
[15] = Acute toxicity LD50, intravenous, in mice; details: mouse, in vivo, iv
[16] = tested on: Anticholinergic activity; experiment: Anticholinergic activity (relative to racemate); format: in vivo

| Structure (SMILES) | Anti-ulcer Activity, % Inhibitory [1] [%] | corediastasis ED20 ([3]; in vivo, ip) [mg/kg] | Anti-ulcer Activity, % Inhibitory [4] [%] | Anti-ulcer Activity, % Inhibitory [5] [%] | Gastric secretion inhibitory activity, % Inhibitory [10] [%] | Anti-ulcer Activity, % Inhibitory [11] [%] | Anti-ulcer Activity (Stress) [12] | Desalivation Activity [13] | LD50 [14] [mg/kg] | LD50 [15] [mg/kg] | other results |
| --- | --- | --- | --- | --- | --- | --- | --- | --- | --- | --- | --- |
| CN1CCN(C[C@H]2C(=O)Nc3ccccc3S[C@H]2c2ccccc2)CC1 (relative stereo) [Compound A] | 100.0 | 0.31 | 51.8 | 100.0 | 90 | 91.6 | – | – | – | – | Anti-ulcer Activity, % Inhibitory ([2]; A: 5 mg/kg): 99.0%; LD50 (in mice), Oral ([6]; mice, test compounds A-C): 650 mg/kg; LD50 (in mice), Intravenous ([7]; mice, test compounds A-C): 65 mg/kg; degree of acute toxicity compared with Glycopyrrolate [8]: approximately the same degree of acute toxicity as Glycopyrrolate; anti-ulcer activity compared with Glycopyrrolate [9]: equal or higher anti-ulcer activity |
| CN1CCN(C[C@H]2C(=O)Nc3ccccc3S[C@H]2c2ccccc2)CC1 (relative stereo) [Racemic Mixture, (±)-cis-2,3-dihydro-3-[(4-methylpiperazinyl)methyl]-2-phenyl-1,5-benzothiazepin-4(5H)-one] | – | – | – | – | – | – | 1 | 1 | 650 | 65 | – |
| CN1CCN(C[C@H]2C(=O)Nc3ccccc3S[C@H]2c2ccccc2)CC1 (single isomer, unassigned) [(-) Form, cis-(-)-2,3-dihydro-3-[(4-methylpiperazinyl)methyl]-2-phenyl-1,5-benzothiazepin-4(5H)-one] | – | – | – | – | – | – | 4 | 0.6 | 870 | 160 | anti-ulcer activity relative to the corresponding racemate ([12]; (-) form vs racemate): 4 times; desalivation activity as a side-effect, degree relative to racemate ([13]; (-) form vs racemate): about 1/2; anticholinergic activity relative to the corresponding racemate ([16]; (-) form vs racemate): 2 times; Anticholinergic Activity ([16]; relative, racemic mixture = 1): 2; acute toxicity by oral administration, degree relative to racemate ([6]; (-) form vs racemate): 3/4; acute toxicity by intravenous administration, degree relative to racemate ([7]; (-) form vs racemate): 2/5 |
| C[N+]1(C)CCC(OC(=O)C(O)(c2ccccc2)C2CCCC2)C1 (centres unmarked) [Compound B, Glycopyrrolate] | 100.0 | 0.037 | 47.6 | 100.0 | 90 | 81.9 | – | – | – | – | Anti-ulcer Activity, % Inhibitory ([2]; B: 20 mg/kg): 88.6% |
| CN1[C@@H]2CC[C@H]1CC(OC(=O)C(CO)c1ccccc1)C2 (some centres unmarked) [Compound C, Atropin Sulfate] | 13.0 | – | 48.0 | 79.3 | 70 | 82.3 | – | – | – | – | corediastasis ED20 ([3]; intraperitoneal administration): 0.076 mg/kg |
